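Step 1: Grow cells in 96-well plates. Step 2: Expose to compound for 48 hours at 5 concentrations. Step 3: Interpolate endpoints linearly; if unreached, use highest concentration. GI50 is the concentration that inhibits growth by half. At the TGI there is no net growth.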
Columns and labels:
Assay in all cases: DTP human tumour cell line panel, 48 h
K-562 leukemia = test system: K-562 leukemia
RPMI-8226 leukemia = test system: RPMI-8226 leukemia
786-0 renal = test system: 786-0 renal
A498 renal = test system: A498 renal
OVCAR-3 ovarian = test system: OVCAR-3 ovarian
SF-268 CNS = test system: SF-268 CNS
NCI/ADR-RES ovarian = test system: NCI/ADR-RES ovarian
HS 578T breast = test system: HS 578T breast
MCF7 breast = test system: MCF7 breast
MDA-MB-435 = test system: MDA-MB-435

Structure (SMILES) | TGI (K-562 leukemia) [µM] | TGI (RPMI-8226 leukemia) [µM] | TGI (786-0 renal) [µM] | TGI (A498 renal) [µM] | TGI (OVCAR-3 ovarian) [µM] | TGI (SF-268 CNS) [µM] | GI50 (NCI/ADR-RES ovarian) [µM] | TGI (NCI/ADR-RES ovarian) [µM] | GI50 (HS 578T breast) [µM] | TGI (HS 578T breast) [µM] | GI50 (K-562 leukemia) [µM] | GI50 (RPMI-8226 leukemia) [µM] | GI50 (MCF7 breast) [µM] | TGI (MCF7 breast) [µM] | GI50 (A498 renal) [µM] | GI50 (OVCAR-3 ovarian) [µM] | GI50 (MDA-MB-435) [µM] | TGI (MDA-MB-435) [µM] | GI50 (SF-268 CNS) [µM]
OC12c3ccccc3C1CCCCCC21OCCCO1 (stereo not given) | > 100 | > 100 | > 100 | > 100 | > 100 | > 100 | – | – | – | – | – | – | – | – | – | – | – | – | –
COc1ccccc1C1C(C#N)=C(N)Oc2cc(O)ccc21 (stereo not given) | > 100 | 19.8 | – | > 100 | 51.4 | 91 | 8.56 | 68.2 | 34.1 | > 100 | 4.68 | 5.99 | 17.7 | 49.7 | 36.8 | 13 | 4.1 | 9.52 | 19.4
O=C(c1ccco1)N(C(=S)N1CCN(c2ccccn2)CC1)c1ccccc1 | > 100 | > 100 | > 100 | – | > 100 | > 100 | – | – | – | – | – | – | – | – | – | – | – | – | –
CCOC1CCN(C(=O)c2ccccc2)O1 (stereo not given) | > 10 | > 10 | > 10 | – | > 10 | > 10 | – | > 10 | – | > 10 | – | – | – | > 10 | – | – | – | > 10 | –
O=C1NC(=Nc2ccccc2)C(=Nc2ccccc2)N1c1ccccc1 | 72.2 | 76.8 | 29 | 31 | – | 34 | – | 30.6 | – | 42.9 | – | – | – | – | – | – | – | 29.7 | –
COc1ccc2c3c1OC1C(OC)(OC)CC4(C=C2)CN(C)CCC314 (stereo not given) | > 100 | > 100 | > 100 | > 100 | > 100 | > 100 | – | > 100 | – | – | – | – | – | > 100 | – | – | – | > 100 | –
Cc1ccc(SCC(OCn2cnc3c(Cl)nc(N)nc32)[C@H](C)F)cc1 (stereo not given in full) | – | > 100 | > 100 | – | > 100 | > 100 | – | > 100 | – | > 100 | – | – | – | > 100 | – | – | – | > 100 | –
C[n+]1cn(-c2nc3ccccc3nc2[N-]S(=O)(=O)c2ccccc2)c2ccccc21 | > 100 | > 100 | > 100 | – | > 100 | > 100 | – | > 100 | – | > 100 | – | – | – | > 100 | – | – | – | > 100 | –
C=CCn1c(=N)/c(=C(\N)O)s/c1=C1/SC(=S)N(c2ccc(C)cc2)C1=O | > 100 | > 100 | – | > 100 | > 100 | > 100 | – | – | – | – | – | – | – | – | – | – | – | – | –
CCn1c(CSc2nc(-c3ccccc3)c(-c3ccccc3)[nH]2)n[nH]c1=S | – | > 100 | > 100 | > 100 | > 100 | > 100 | – | – | – | – | – | – | – | – | – | – | – | – | –
CC[n+]1c(/C=C/c2ccc(N(CCCl)CCCl)cc2)ccc2cc(I)ccc21 | 1.6 | 1.72 | – | 13.1 | 1.12 | – | – | – | – | – | – | – | – | – | – | – | – | – | –
C/C(O[Si](C(C)C)(C(C)C)C(C)C)=C(\C)C(=O)N(C)c1ccccc1Cl | – | > 100 | > 100 | > 100 | > 100 | > 100 | – | > 100 | – | – | – | – | – | – | – | – | – | > 100 | –
CCOC(=O)C1(C(=O)OCC)C=C(c2ccccc2)N(C2OC(COC(C)=O)C(OC(C)=O)C(OC(C)=O)C2OC(C)=O)C1=S (stereo not given) | – | 44.3 | > 100 | > 100 | > 100 | > 100 | – | > 100 | – | > 100 | – | – | – | > 100 | – | – | – | > 100 | –
CCN(CC)CCN1C(=O)C(=O)N(c2cccc3ccccc23)C1=O | > 10 | > 10 | – | > 10 | > 10 | > 10 | – | > 10 | – | > 10 | – | – | – | > 10 | – | – | – | > 10 | –
C[C@H]1O[C@@H](C(C)(C)C)OC(=O)[C@@H]1C(OC(=O)c1ccccc1)c1cccc2ccccc12 (stereo not given in full) | > 100 | > 100 | > 100 | – | > 100 | > 100 | – | > 100 | – | > 100 | – | – | – | > 100 | – | – | – | > 100 | –
NS(=O)(=O)c1nnc(NS(=O)(=O)c2ccc([N+](=O)[O-])cc2)s1 | > 100 | > 100 | > 100 | > 100 | > 100 | > 100 | – | > 100 | – | – | – | – | – | > 100 | – | – | – | > 100 | –
C=CCN(CCN(CC=C)S(=O)(=O)c1ccc(C)cc1)S(=O)(=O)c1ccc(C)cc1 | > 100 | – | – | > 100 | > 100 | > 100 | – | > 100 | – | > 100 | – | – | – | > 100 | – | – | – | > 100 | –
COc1ccc2oc(C(=O)N3CC(CCl)c4ccc(N)cc43)cc2c1 (stereo not given) | > 63.4 | – | 0.277 | 0.865 | > 100 | 9.61 | – | 0.758 | – | 3.53 | – | – | – | 3.02 | – | – | – | 1.24 | –
Cc1ccc(/S(Cc2ccccc2)=N\S(=O)(=O)c2ccc(C)cc2)cc1 (stereo not given) | > 100 | > 100 | > 100 | – | > 100 | > 100 | – | > 100 | – | – | – | – | – | > 100 | – | – | – | > 100 | –
NC(N)=N/N=C/c1c(-c2cc([N+](=O)[O-])c(Cl)cc2Cl)nc2n1CCS2 | > 100 | > 100 | > 100 | > 100 | > 100 | > 100 | – | > 100 | – | > 100 | – | – | – | – | – | – | – | 74.3 | –
COc1ccc(/C(Cl)=C(\C=O)c2ccc(Cl)cc2)cc1OC | 71.3 | 62.9 | – | 54.3 | 31.7 | > 100 | – | – | – | – | – | – | – | – | – | – | – | – | –
O/N=C\C(=Nc1ccc(Cc2ccc(N=C(/C=N\O)NO)cc2)cc1)NO | > 100 | > 100 | > 100 | > 100 | > 100 | > 100 | – | – | – | – | – | – | – | – | – | – | – | – | –
COc1cc(OC)c(OC)cc1/C=C/c1cc[n+](C)c2ccccc12 | 19.4 | > 100 | > 100 | > 100 | – | > 100 | – | > 100 | – | – | – | – | – | > 100 | – | – | – | – | –
C=CCCC(=O)C(=[N+]=[N-])C(=O)CCC(=O)c1ccccc1 | > 10 | > 10 | > 10 | > 10 | > 10 | > 10 | – | – | – | > 10 | – | – | – | > 10 | – | – | – | > 10 | –

From PubChem BioAssay (NCI)
